Measurements published in ChEMBL document CHEMBL1201862, “PubChem BioAssay data set” (2004).
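Where inhibition never reached the appropriate level, the endpoint shown equals the highest concentration tested. Otherwise, values were interpolated linearly from a five-concentration, 48-hour dose response in 96-well plates. GI50 marks 50% less growth.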 Calls of active or inactive are those of the source. Rule as the data show it: active = GI50 up to about 1.1 µM and inactive = higher.

Assays:
Assay in all cases: inhibition of tumour cell growth, NCI panel, 48 h
EKVX = tested on: EKVX
NCI-H226 = tested on: NCI-H226
OVCAR-4 = tested on: OVCAR-4
SNB-19 = tested on: SNB-19
OVCAR-8 = tested on: OVCAR-8
HOP-62 = tested on: HOP-62
HOP-92 = tested on: HOP-92
HCC 2998 = tested on: HCC 2998
TK-10 = tested on: TK-10
SF-268 = tested on: SF-268
SK-MEL-2 = tested on: SK-MEL-2
IGROV-1 = tested on: IGROV-1
HCT-15 = tested on: HCT-15
LOX IMVI = tested on: LOX IMVI
HL-60 = tested on: HL-60
NCI-H23 = tested on: NCI-H23
M14 = tested on: M14
NCI/ADR-RES = tested on: NCI/ADR-RES
OVCAR-5 = tested on: OVCAR-5
MDA-MB-435 = tested on: MDA-MB-435

| SMILES | GI50 (EKVX) | GI50 (NCI-H226) | GI50 (OVCAR-4) | GI50 (SNB-19) | GI50 (OVCAR-8) | GI50 (HOP-62) | GI50 (HOP-92) | GI50 (HCC 2998) | GI50 (TK-10) | GI50 (SF-268) | GI50 (SK-MEL-2) | GI50 (IGROV-1) | GI50 (HCT-15) [µM] | GI50 (LOX IMVI) | GI50 (HL-60) | GI50 (NCI-H23) | GI50 (M14) | GI50 (NCI/ADR-RES) | GI50 (OVCAR-5) | GI50 (MDA-MB-435) |
| --- | --- | --- | --- | --- | --- | --- | --- | --- | --- | --- | --- | --- | --- | --- | --- | --- | --- | --- | --- | --- |
| CCc1cccc(C)c1NC(=O)C(=O)CC(=O)c1ccc(Cl)s1 | > 100 µM (inactive) | > 100 µM (inactive) | > 100 µM (inactive) | > 100 µM (inactive) | > 100 µM (inactive) | > 100 µM (inactive) | > 100 µM (inactive) | > 100 µM (inactive) | > 100 µM (inactive) | > 100 µM (inactive) | > 100 µM (inactive) | > 100 µM (inactive) | > 100 | > 100 µM (inactive) | > 100 µM (inactive) | > 100 µM (inactive) | > 100 µM (inactive) |  |  |  |
| C[N+](C)([O-])C12CC3CC(CC(C3)C1)C2 | 21.4 µM (inactive) | 55.2 µM (inactive) | 33.1 µM (inactive) | 46.3 µM (inactive) | 40.1 µM (inactive) | 24 µM (inactive) |  | 29.4 µM (inactive) | 20.9 µM (inactive) | 38.3 µM (inactive) | 22.6 µM (inactive) | 25.3 µM (inactive) | 30.6 | 27.2 µM (inactive) | 44.6 µM (inactive) | 28.2 µM (inactive) | 25.7 µM (inactive) | 31.6 µM (inactive) | 39.6 µM (inactive) | 28.4 µM (inactive) |
| COc1ccc(NCc2cc(OC)cc(OC)c2)cc1 | 78.5 µM (inactive) | 38.3 µM (inactive) | 18.5 µM (inactive) | > 68.4 µM (inactive) | 49.1 µM (inactive) | 8.53 µM (inactive) | 78.5 µM (inactive) | 12.1 µM (inactive) | 50.7 µM (inactive) | 26 µM (inactive) | 7 µM (inactive) | 22.5 µM (inactive) | 10.3 | 25.2 µM (inactive) | 7.6 µM (inactive) | 26.3 µM (inactive) | 22.2 µM (inactive) |  | 24.7 µM (inactive) |  |
| Cc1cccc2cc3cccc(C(=O)NCCN(C)C)c3nc12 | 0.362 µM (active) | 0.0638 µM (active) | 0.27 µM (active) | 0.191 µM (active) | 0.0925 µM (active) | 0.0745 µM (active) | 0.185 µM (active) | 0.181 µM (active) | 0.317 µM (active) | 0.296 µM (active) | 0.579 µM (active) | 0.38 µM (active) | 0.0993 | 0.083 µM (active) | 0.028 µM (active) | 0.171 µM (active) | 0.433 µM (active) |  | 0.292 µM (active) |  |
| Cc1ccc(S(=O)(=O)/N=C(\NN)Nc2ccc(Cl)cc2)cc1 | > 100 µM (inactive) | 58.3 µM (inactive) | > 100 µM (inactive) | > 100 µM (inactive) | > 100 µM (inactive) | > 100 µM (inactive) | > 100 µM (inactive) |  | > 100 µM (inactive) |  | > 100 µM (inactive) | > 100 µM (inactive) | > 100 | > 100 µM (inactive) | > 100 µM (inactive) | > 100 µM (inactive) | > 100 µM (inactive) | > 100 µM (inactive) | > 100 µM (inactive) |  |
| CC(C)[Si](OCC1CC(C#N)OC(C)(C)O1)(C(C)C)C(C)C (configuration not stated) | 30.3 µM (inactive) | 19.1 µM (inactive) | 30.3 µM (inactive) | 22 µM (inactive) | 21.1 µM (inactive) | 23.7 µM (inactive) | 21.7 µM (inactive) | 21.2 µM (inactive) | 39.5 µM (inactive) | 26.9 µM (inactive) | 16.2 µM (inactive) | 28.2 µM (inactive) | 27.8 | 19.3 µM (inactive) | 13 µM (inactive) | 19.3 µM (inactive) | 20 µM (inactive) |  | 44 µM (inactive) |  |
| Cc1cc2[nH]c3c(C#N)c(-c4ccccc4)c(/N=N/c4cccc(C(F)(F)F)c4)c(=O)n3c2cc1C | 23.4 µM (inactive) | 25.2 µM (inactive) | 39.5 µM (inactive) | 35.2 µM (inactive) | 26.1 µM (inactive) | > 100 µM (inactive) |  | 59.2 µM (inactive) | 50.4 µM (inactive) | 32.6 µM (inactive) | 58.1 µM (inactive) | 21.8 µM (inactive) | 37 | 49.1 µM (inactive) |  | 14.6 µM (inactive) | 34.4 µM (inactive) | 34.3 µM (inactive) | > 100 µM (inactive) | 38.8 µM (inactive) |
| CC(=O)Nc1ccc(C2=N/C(=C\c3ccc(Cl)cc3)C(=O)O2)cc1 | > 100 µM (inactive) | > 100 µM (inactive) | 65 µM (inactive) | 63.7 µM (inactive) | 32.1 µM (inactive) | > 100 µM (inactive) | 33.7 µM (inactive) | 20 µM (inactive) | > 100 µM (inactive) | 34.3 µM (inactive) | > 100 µM (inactive) | > 100 µM (inactive) | 19.9 | 18.4 µM (inactive) | 30.3 µM (inactive) | 36.4 µM (inactive) | 25.5 µM (inactive) |  | > 100 µM (inactive) |  |
| CC1(C)C(=O)CCC(=O)C(C)(C)C2=CC=C(O2)C(C)(C)C(=O)CCC(=O)C(C)(C)C2=CC=C1O2 | > 100 µM (inactive) | > 100 µM (inactive) | > 100 µM (inactive) | > 100 µM (inactive) | > 100 µM (inactive) | > 100 µM (inactive) | 76.9 µM (inactive) | > 100 µM (inactive) | > 100 µM (inactive) | > 100 µM (inactive) | > 100 µM (inactive) | > 100 µM (inactive) | > 100 | > 100 µM (inactive) | > 100 µM (inactive) | > 100 µM (inactive) |  |  | > 100 µM (inactive) |  |
| Cn1c(=O)c(C(c2ccccc2)c2c(O)c3ccccc3n(C)c2=O)c(O)c2ccccc21 | > 100 µM (inactive) | 0.0283 µM (active) | 53.6 µM (inactive) | > 100 µM (inactive) | > 100 µM (inactive) |  | > 100 µM (inactive) | > 100 µM (inactive) | > 100 µM (inactive) | > 100 µM (inactive) | > 100 µM (inactive) | > 100 µM (inactive) | > 10 | > 100 µM (inactive) | 32.4 µM (inactive) | > 100 µM (inactive) | > 100 µM (inactive) |  | 23.2 µM (inactive) |  |
| CCc1cccc(C)c1NC(=S)NC(=O)c1ccccc1C(=O)NC(=S)Nc1c(C)cccc1CC | 59.6 µM (inactive) | 50.4 µM (inactive) | 69.3 µM (inactive) | > 100 µM (inactive) | 95.1 µM (inactive) | > 100 µM (inactive) | 19.1 µM (inactive) | 90.6 µM (inactive) | > 100 µM (inactive) | > 100 µM (inactive) | > 100 µM (inactive) | 93.8 µM (inactive) | > 100 | > 100 µM (inactive) | 40.6 µM (inactive) | 35.6 µM (inactive) | > 100 µM (inactive) |  | > 100 µM (inactive) |  |
| C=C1CC[C@@H]2C(C)(C)C(O)CCC2(C)C1COc1ccc2ccc(=O)oc2c1 (some centres not stated) | 19.3 µM (inactive) | 18.8 µM (inactive) | 13.5 µM (inactive) | 18.3 µM (inactive) | 17.2 µM (inactive) | 19.1 µM (inactive) | 17.3 µM (inactive) | 19.9 µM (inactive) | 19.8 µM (inactive) | 18.9 µM (inactive) | 17.4 µM (inactive) | 18.9 µM (inactive) | 14.1 | 16.8 µM (inactive) | 15.1 µM (inactive) | 18.6 µM (inactive) | 18.6 µM (inactive) |  |  |  |
| O=C1c2ccccc2-c2c1c(-c1ccc(O)cc1O)nc1ccc3ccccc3c21 | > 100 µM (inactive) | > 100 µM (inactive) | > 100 µM (inactive) | > 100 µM (inactive) | 79.6 µM (inactive) | 49 µM (inactive) |  | > 100 µM (inactive) |  | > 100 µM (inactive) | > 100 µM (inactive) |  | > 100 |  |  | > 100 µM (inactive) | > 100 µM (inactive) | > 100 µM (inactive) | > 100 µM (inactive) | > 100 µM (inactive) |
| COc1ccc(N2C(=O)C3c4[nH]c5ccc(C)cc5c4C4CCC(C(C)(C)C)CC4C3C2=O)cc1 (configuration not stated) | 31 µM (inactive) | 21.1 µM (inactive) | 3.35 µM (inactive) | 22.6 µM (inactive) | 6.21 µM (inactive) | 13.6 µM (inactive) |  | 41 µM (inactive) | 17.1 µM (inactive) | 13 µM (inactive) |  | 38.9 µM (inactive) | 27.5 |  | 19.1 µM (inactive) | 22.3 µM (inactive) | 10.7 µM (inactive) | 13.3 µM (inactive) |  | 24.9 µM (inactive) |
| Cc1cc(Br)cc(C)c1NC(=O)C(=O)CC(=O)c1sc(-n2nc(-c3ccccc3)cc2-c2ccccc2)nc1C | > 100 µM (inactive) | > 100 µM (inactive) | > 100 µM (inactive) | > 100 µM (inactive) | > 100 µM (inactive) | > 100 µM (inactive) | > 100 µM (inactive) | > 100 µM (inactive) | > 100 µM (inactive) | > 100 µM (inactive) |  | > 100 µM (inactive) | > 100 | > 100 µM (inactive) | > 100 µM (inactive) | > 100 µM (inactive) | > 100 µM (inactive) |  | > 100 µM (inactive) |  |
| CN(C)c1ncnc2c1Cc1ccccc1C(=O)N2C | > 100 µM (inactive) | > 100 µM (inactive) | > 100 µM (inactive) | > 100 µM (inactive) | > 100 µM (inactive) | > 100 µM (inactive) | > 100 µM (inactive) | > 100 µM (inactive) | > 100 µM (inactive) | > 100 µM (inactive) | > 100 µM (inactive) | > 100 µM (inactive) |  | > 100 µM (inactive) | > 100 µM (inactive) | > 100 µM (inactive) | > 100 µM (inactive) |  | > 100 µM (inactive) |  |
